Patent US9102617B2, “Antimicrobial agents” (Rutgers, The State University of New Jersey, priority 2010, dated 2015)
Like-named read-outs stand apart in the source and are kept apart here.

Experiments:
S. aureus FtsZ = target: T1, S. aureus FtsZ (Staphylococcus aureus, UniProt P0A031); assay: Inhibition of S. aureus FtsZ polymerization and GTPase activity (Tests A and B); assay type: biochemical
T1 sequence (P0A031 1-390): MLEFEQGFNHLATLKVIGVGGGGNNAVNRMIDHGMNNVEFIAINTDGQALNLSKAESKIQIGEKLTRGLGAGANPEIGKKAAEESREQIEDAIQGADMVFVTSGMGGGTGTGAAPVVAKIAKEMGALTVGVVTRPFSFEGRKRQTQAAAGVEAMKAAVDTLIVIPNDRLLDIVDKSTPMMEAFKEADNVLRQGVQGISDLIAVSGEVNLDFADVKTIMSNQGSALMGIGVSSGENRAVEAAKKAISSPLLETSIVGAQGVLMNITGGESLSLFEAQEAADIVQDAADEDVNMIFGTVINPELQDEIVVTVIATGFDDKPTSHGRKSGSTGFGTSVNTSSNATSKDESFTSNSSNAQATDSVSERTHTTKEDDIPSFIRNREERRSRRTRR
Excerpt: Test A. Determining the Impact of the Compounds of the Invention on FtsZ Polymerization Dynamics.
Compound-induced alteration in FtsZ polymerization dynamics can be tested using a light scattering-based […] using purified FtsZ. Upon addition of GTP, FtsZ self-associates to form polymeric structures that scatter light at 340 nm to a greater extent than the monomeric protein. The impact of the compounds of the invention on the polymerization dynamics of FtsZ can be detected by an increase of decrease in the extent of GTP-induced light scattering relative to that observed in the absence of compound. Quantitation of the overall extent of light scattering as a function of compound concentration to yield a compound concentration at which FtsZ polymerization is inhibited by 50% (IC50) provides an indication of the potency of that compound at altering FtsZ polymerization dynamics.
Test B. Determining the FtsZ GTPase Inhibitory Activities of Compounds of the Invention.
Compound-induced inhibition of the FtsZ GTPase activity can be tested using a colorimetric assay in which the inorganic phosphate (Pi) released upon FtsZ-catalyzed hydrolysis of GTP reacts with malachite green and molybdate under acidic conditions to form a ternary complex that absorbs light at 650 nm, thus enabling quantitation of Pi levels by recording the absorbance at 650 nm (A650). Differing concentrations of test compound are combined with GTP and the reactions (run in triplicate) are initiated by addition of FtsZ. After incubation for 60 minutes at room temperature, the reactions are stopped by addition of an acidic malachite green-molybdate solution containing malachite green oxalate, sodium molybdate, Triton X-100, and 0.7 N HCl. For the purposes of generating a standard curve, each experiment includes reactions containing known concentrations of monobasic potassium phosphate (KH2PO4) in place of FtsZ. Ten minutes following addition of the acidic malachite green-molybdate solution, the A650 value for each reaction is recorded. A standard curve of A650 versus Pi concentration is constructed using the average A650 value obtained for each known KH2PO4 concentration. This standard curve is then fit by linear regression analysis to yield the quantitative relationship between A650 and Pi concentration. The resulting relationship as well as the average A650 value for each test reaction is used to calculate the concentrations of Pi released by the GTPase activity of FtsZ. The released Pi concentration in the absence of test compound is set as the mark for 100% GTPase activity, and is used to calculate the percent GTPase activities in reactions containing test compounds. The percent GTPase activity is then plotted as a function of log (compound concentration), with the resulting curves being fit using an appropriate sigmoidal relationship to obtain the compound concentrations at which GTPase activity is inhibited by 50% (IC50 values).

[1] = test system: methicillin-sensitive Staphylococcus aureus (MSSA); assay: Planktonic antibacterial broth microdilution assay (Test C), MIC vs MSSA; assay type: cell-based; settings: 37° C., growth read after 24 to 48 hours at OD 600 nm
Description: (§1) Test C. Planktonic (Free-Living) Antibacterial Assay.
(§2) Planktonic antibacterial activity can be determined using a broth microdilution assay in which log-phase bacteria are grown at 37° C. in appropriate medium containing two-fold serial dilutions of a compound to yield a final concentration ranging from 256 to 0.1 μg/ml. For determination of minimal inhibitory concentration (MIC) values, bacterial growth is monitored after 24 to 48 hours by measuring optical density at 600 nm. […] The minimal inhibitory concentration against methicillin-sensitive Staphylococcus aureus (MSSA) for each of the following representative compounds of the invention was determined to be less than 32 μg/ml.

[2] = test system: methicillin-resistant Staphylococcus aureus (MRSA); assay: Planktonic antibacterial broth microdilution assay (Test C), MIC vs MRSA; assay type: cell-based; settings: read-out: MIC vs MRSA
Description: as §1, §2
Representative compounds of the invention were also tested against methicillin-resistant Staphylococcus aureus, vancomycin-resistant Enterococcus faecalis and Enterococcus faecium (VRE), vancomycin-sensitive Enterococcus faecalis and Enterococcus faecium (VSE).

[3] = S. aureus FtsZ, polymerization and/or GTPase activity, read-out: IC50 (compound concentration at which FtsZ polymerization and/or GTPase activity is inhibited by 50%)
[4] = broth microdilution, 37° C., growth read after 24 to 48 hours at OD 600 nm

Row | Structure (SMILES) | IC50 (S. aureus FtsZ; [3]) | MIC [1] | MIC [2, 4] | IC50 (S. aureus FtsZ) | MIC [2]
1 | CC(C)(C)c1ccc(-c2cccc3c(CNC(=N)N)cccc23)cc1 [Example 42] | < 151 µM | ≤ 8 µg/mL | ≤ 8 µg/mL |  | 
2 | CC(C)(C)c1ccc(-c2cccc3cc(-c4ccccc4CNC(=N)N)ccc23)cc1 [Example 104] | < 123 µM | ≤ 8 µg/mL |  |  | 
3 | C[n+]1ccc2c(-c3ccc(-c4ccccc4)cc3)cccc2c1.[I-] [Example 112] |  | ≤ 8 µg/mL |  | < 118 µM | 32 µg/mL
4 | CNCc1ccccc1-c1ccc2c(-c3ccc(C(C)(C)C)cc3)cccc2c1 [Example 61] |  | ≤ 8 µg/mL | ≤ 8 µg/mL |  | 
5 | C[n+]1ccc(-c2ccc(-c3ccccc3)cc2)c2ccccc21.[I-] [Example 120] |  | ≤ 8 µg/mL |  | < 118 µM | > 32 µg/mL

Second part, led by results:

Row | IC50 (S. aureus FtsZ; [3]) | MIC [1] | MIC [2, 4] | Structure (SMILES) | IC50 (S. aureus FtsZ) | MIC [2]
6 | < 118 µM | ≤ 8 µg/mL | ≤ 8 µg/mL | C[n+]1cccc2cc(-c3ccc(-c4ccccc4)cc3)ccc21.[I-] [Example 114] |  | 
7 | < 93.4 µM | ≤ 8 µg/mL | ≤ 8 µg/mL | CC(C)(C)c1ccc(-c2cccc3cc(-c4ccccc4C[N+](C)(C)C)ccc23)cc1.[I-] [Example 63] |  | 
8 |  | ≤ 8 µg/mL | ≤ 8 µg/mL | CC(C)(C)c1ccc(-c2cccc3c(CCN=C(N)N)cccc23)cc1 [Example 37] |  | 
9 | < 173 µM | ≤ 8 µg/mL | ≤ 8 µg/mL | CC(C)(C)c1ccc(-c2cccc3c(CN)cccc23)cc1 [Example 41] |  | 
10 | < 79.7 µM | ≤ 8 µg/mL | ≤ 8 µg/mL | CCC[n+]1cc(-c2cc(OC)c(OC)c(-c3ccc(C(C)(C)C)cc3)c2)cc2cc(OC)c(OC)cc21.[I-] [Example 19] |  | 
11 |  | ≤ 8 µg/mL | ≤ 8 µg/mL | NCc1cccc(-c2ccc3c(-c4cccc(-c5ccccc5)c4)cccc3c2)c1 [Example 70] |  | 
